Results taken from US5376679A, “Bicyclic or tricyclic biocidal compounds” (Shell Internationale Research Maatschappij B.V., priority 1988, dated 1994).
≈ marks a conversion by molar mass, not a printed value.

How the values were obtained:
Plasmopara viticola [1] = test: Direct protectant activity against vine downy mildew (Pvp); assay type: in vivo; design: Pvp: direct protectant activity against vine downy mildew: scale not given here; settings: foliar spray, 1 kg/ha; activity grade 1 or 2, not defined
Source text: (a) Direct Protectant Activity Against Vine Downy Mildew (Plasmopara viticola; Pvp)
The test is a direct protectant one, using a foliar spray. The lower surfaces of leaves of whole vine plants (cv Cabernet Sauvignon) are sprayed with a solution of active material in 1:1 v/v water/acetone containing 0.04% w "Triton X-155" (trade mark) (octylphenol polyoxyethylene surfactant), at a dosage of 1 kilogram of active material per hectare using a track sprayer which delivers 620 liters/ha, and after a subsequent 24 hours under normal glasshouse conditions the lower surfaces of the leaves are inoculated by spraying with an aqueous solution containing 10^4 zoosporangia/ml. The inoculated plants are kept for 24 hours in a high humidity compartment, 5 days under normal glasshouse conditions and then returned for a further 24 hours to high humidity. Assessment is based on the percentage of leaf area covered by sporulation compared with that on control leaves.

Botrytis cinerea = test: Direct protectant activity against vine grey mould (Bcp); assay type: in vivo; settings: foliar spray, 1 kg/ha; activity grade 1 or 2, not defined
Source text: (b) Direct Protectant Activity Against Vine Grey Mould (Botrytis cinerea; Bcp) The test is a direct protectant one using a foliar spray and is effected as described under (a), with the difference that the leaves are inoculated by spraying with an aqueous solution containing 10^5 conidia/ml.

[2] = tested on: Pseudocercosporella herpotrichoides; test: In vitro activity against wheat eyespot (Ph); assay type: cell-based; design: Ph: activity against wheat eyespot: scale not given here; settings: in vitro, 100 ppm in agar, 11 days; activity grade 1 or 2, not defined
Method: (c) Activity Against Wheat Eyespot (Pseudocercosporella herpotrichoides; Ph)
The test is an in vitro one. Samples are prepared wherein 0.7 mls solution containing 2 mg active material dissolved in acetone is evenly dispersed in 20 ml molten half-strength potato dextrose agar (formed by dissolving 2 g potato extract, 10 g dextrose and 7.5 g agar in 1 liter of water and sterilising for 15 minutes and 121° C.) and the resulting 20 ml portions are allowed to set in 9 cm petri dishes. The concentration of active material in the resulting samples is 100 ppm. Upon setting, two plugs of 5 mm diameter taken from the advancing edge of a stock plate of a 3 to 4 week old culture of P.herpotrichoides on full strength potato dextrose agar, incubated at 20°-22° C. in darkness, are placed, equally spaced on the surface of each sample, mycelial side uppermost. The samples are incubated for 11 days at 20°-22° C. in darkness before assessment. Diametric growth is measured with the width of the plug subtracted and results compared with growth on a sample wherein 0.7 ml acetone containing no active material is dispersed in 20 ml half-strength potato agar.

Fusarium culmorum = test: Activity against seedling wheat blight, soil drench (Fs); assay type: in vivo; design: scale not given here; settings: 10 kg/ha, 21 days, activity grade 1 or 2, not defined
Method: (d) Activity Against Seedling Wheat Blight (Fusarium culmorum; Fs)
The test is an anti-sporulant one using a soil drench. Surface sterilised wheat seeds (var Waggoner) are inoculated by soaking in an aqueous suspension containing 7×10^5 spores/ml (60 mg seed per 80 ml suspension) at 22° C. for 6 hours. The seeds are then sown in pots (5 per pot) in sand at a depth of 1 cm. 1 day after inoculation and planting the active material is applied at a rate of 10 kg/ha by pouring on a soil drench (concentration 0.36 g/l active material in 12% v/v acetone/water) evenly over the sand. The pots are then transferred to a glasshouse, kept at 25° C. and watered sparingly. 21 days after inoculation the resulting seedlings are removed from the pots and their roots are gently washed. Visual assessment is made based on lesion development on stem base and upper roots in comparison with control seedlings.

Leptosphaeria nodorum = test: Direct antisporulant activity against wheat leafspot (Ln); assay type: in vivo; design: scale not given here; settings: foliar spray, 1 kg/ha; activity grade 1 or 2, not defined
Method: (e) Activity Against Wheat Leafspot (Leptosphaeria nodorum; Ln) The test is a direct antisporulant one, using a foliar spray. Leaves of wheat plants ([…]), at the single leaf stage, are inoculated by spraying with an aqueous suspension containing 8×10^5 spores/mi. The inoculated plants are kept for 24 hours in a high humidity compartment prior to treatment. […] After drying, the plants are kept for 5 days under normal glasshouse conditions, followed by assessment. Assessment is based on the percentage of leaf area covered by sporulation compared with that on leaves of control plants.

Alternaria Solani = test: Direct protectant activity against tomato early blight (As); assay type: in vivo; design: As: activity against tomato early blight: scale not given here; settings: foliar spray as under (a), 8 days; activity grade 1 or 2, not defined; further: dose 1000 g/ha
Method: (g) Activity Against Tomato Early Blight (Alternaria Solani; As). The test is a direct protectant one using a foliar spray. The upper surfaces of leaves of young tomato plants are sprayed with a solution of active material as described in (a) above. After 24 hours under normal glasshouse conditions, the upper surfaces of the leaves are inoculated by spraying with an aqueous suspension containing 10^4 spores/ml. The inoculated plants are kept for 72 hours in a high humidity compartment and are then removed to lower humidity (50-70% relative humidity). Assessment is made 8 days after inoculation.

[3] = tested on: Erysiphe graminis f.sp. hordei; test: Direct antisporulant activity against barley powdery mildew (Eg); assay type: in vivo; design: scale not given here; settings: foliar spray, 1 kg/ha; activity grade 1 or 2, not defined
Source text: (f) Activity Against Barley Powdery Mildew (Erysiphe graminis f.sp. hordei; Eg) The test is a direct antisporulant one, using a foliar spray. Leaves of barley seedlings, cultivar Golden Promise, are inoculated by dusting with mildew conidia one day prior to treatment with the test compound. The inoculated plants are kept overnight at glasshouse ambient temperature and humidity prior to treatment. […] After drying, plants are returned to a compartment at ambient temperature and humidity for up to 7 days, followed by assessment. Assessment is based on the percentage of leaf area covered by sporulation compared with that on leaves of control plants.

Staphylococcus aureus = test: Minimum inhibitory concentration, Staphylococcus aureus (Sa); assay type: cell-based, Staphylococcus aureus (NCIB 6571); settings: 30° C., 24 and 72 hours
Method: (§1) In respect of S. aureus, B. subtilis and E. coli, the microorganisms were cultured in 50 ml aliquots of a tryptone soya broth in 250 ml conical flasks at 30° C. on a rotary shaker at 200 rpm for 24 hours. Tryptone soya broth was prepared by adding 17 g pancreatic digest of casein, 3 g […] digest of soyabean meal, 5 g of sodium chloride, 2.5 g of dipotassium hydrogen phosphate and 2.5 g of dextrose to 1 liter of distilled water, mixing and sterilising by autoclaving at 121° C. for 15 minutes. 1 ml aliquots of the resulting cultures were mixed with 99 ml of fresh tryptone soya broth and used as inocula for tests. […] Test procedures were as follows: (ii) Dilution Series for Other Test Bacteria, Yeast and Filamentous Fungi Dilution series from the stock solution of each compound were prepared in sterile distilled water. These contained 50, 100, 500 and 1000 ppm compound. To duplicate wells of a compartmentalised square petri dish 0.3 ml of each test compound concentration was added together with 2.7 ml of one of the microbial inocula described above. […] After incubation, in the dark, at 30° C. the wells were examined for the presence or absence of growth. Bacterial and yeast cultures were examined after 24 hours and 72 hours incubation and the fungi cultures after 3, 7 and 10 days. By means of the above tests minimum inhibitory concentrations were determined for the various test compounds.

Bacillus subtilis = test: Minimum inhibitory concentration, Bacillus subtilis (Bs); assay type: cell-based; settings: 30° C., 24 and 72 hours
Method: as §1

Escherichia coli = test: Minimum inhibitory concentration, Escherichia coli (Ec); assay type: cell-based, Escherichia coli (NCIB 9517); settings: 30° C., 24 and 72 hours
Method: as §1

Desulfovibrio sp. = test: Minimum inhibitory concentration, sulphate-reducing bacteria (Dsp); assay type: cell-based; settings: 30° C., 2, 5 and 10 days
Method: The sulphate reducing bacteria Desulfovibrio sp. were cultured in a modified Postgate's Medium B for 48 hours at 30° C. and used directly as an inoculum. The modified Postgate's Medium B consisted of 0.5 g dipotassium hydrogen phosphate, 1 g ammonium chloride, 1 g sodium sulphate, 5 g sodium lactate, 1 g yeast extract, 0.1 ml thioglycolic acid, 0.1 ml ascorbic acid, 0.5 g ferrous sulphate heptahydrate, 750 ml aged seawater and 250 ml distilled water, pH adjusted to 7.8, divided into aliquots and sterilised by autoclaving at 121° C. for 15 minutes. […] Test procedures were as follows: (i) Suphate-reducing Bacteria Test Dilution Series Duplicate aliquots (9.9 ml) of dilution series from the stock solutions of each compound were prepared in a modified Postgate's Medium B described above. These contained 100 ppm compound. These were then inoculated with 0.1 ml of inoculum. After incubation at 30° C., the presence or absence of growth--as indicated by a blackening of the medium due to ferrous sulphide production--was recorded at 2, 5 and 10 days. […] By means of the above tests minimum inhibitory concentrations were determined for the various test compounds.

Saccharomyces cerevisiae = test: Minimum inhibitory concentration, yeast (Sc); assay type: cell-based, Saccharomyces cerevisiae (ATCC 9763); settings: 30° C., 24 and 72 hours
Method: Inocula of S. cerevisiae were prepared as for S. aureus, B. subtilis and E. coli, but using yeast malt broth in place of the typtone soya broth. The yeast malt broth was prepared by suspending 3 g yeast extract, 3 g malt extract, 5 g peptone and 10 g dextrose in 1 liter of distilled water, warming to achieve solution and sterilising by autoclaving at 121° C. for 15 minutes.
(§2) Test procedures were as follows:
(§3) (ii) Dilution Series for Other Test Bacteria, Yeast and Filamentous Fungi
(§4) Dilution series from the stock solution of each compound were prepared in sterile distilled water. These contained 50, 100, 500 and 1000 ppm compound. To duplicate wells of a compartmentalised square petri dish 0.3 ml of each test compound concentration was added together with 2.7 ml of one of the microbial inocula described above. This gave final concentrations of the test compound of 5, 10, 50 and 100 ppm.
(§5) After incubation, in the dark, at 30° C. the wells were examined for the presence or absence of growth. Bacterial and yeast cultures were examined after 24 hours and 72 hours incubation and the fungi cultures after 3, 7 and 10 days.
(§6) By means of the above tests minimum inhibitory concentrations were determined for the various test compounds.

Aspergillus niger = test: Minimum inhibitory concentration, Aspergillus niger (An); assay type: cell-based, Aspergillus niger (CMI 17454); settings: 30° C., 3, 7 and 10 days
Method: (§7) Inocula of the fungi Aspergillus niger, Cladosporium resinae and Chaetomium globosum were prepared containing 5×10^5 conidia/ml in a potato dextrose broth. The potato dextrose broth was prepared by suspending 4 g potato extract and 20 g dextrose in 1 liter of distilled water, warming to achieve solution, separating into aliquots and sterilising by autoclaving at 121° C. for 15 minutes.
as §2, §3, §4, §5, §6

Cladosporium resinae = test: Minimum inhibitory concentration, Cladosporium resinae (Cr); assay type: cell-based; settings: Amorphotheca resinae, 30° C., 3, 7 and 10 days
Method: as §7, §2, §3, §4, §5, §6

Chaetomium globosum = test: Minimum inhibitory concentration, Chaetomium globosum (Chg); assay type: cell-based; settings: 30° C., 3, 7 and 10 days
Method: as §7, §2, §3, §4, §5, §6

Plasmopara viticola [4] = test: Antisporulant activity against vine downy mildew (Pva); assay type: in vivo; settings: foliar spray, 1 kg/ha; activity grade 1 or 2, not defined
Method: (j) Antisporulant Activity Against Vine Downy Mildew (Plasmopara viticola; Pva)
The test is a direct antisporulant one using a foliar spray. The lower surfaces of leaves of whole vine plants (cv Cabernet Sauvignon) are inoculated by spraying with an aqueous suspension containing 10^4 zoosporangia/ml 2 days prior to treatment with the test compound. The inoculated plants are kept for 24 hours in a high humidity compartment, and then 24 hours at glasshouse ambient temperature and humidity. When the plants are dry, infected leaves are sprayed on their lower surfaces with a solution of active material in 1:1 water/acetone containing 0.04% w/w "Triton X-155" (trade mark) (an octylphenol polyethoxylate surfactant). The spraying is carried out with a moving track sprayer with delivers 620 liter/ha, and the concentration of active material is calculated to give an application rate of 1 kg/ha. After spraying, the plants are returned to normal glasshouse conditions for 96 hours and are then transferred to the high humidity compartment for 24 hours to induce sporulation, prior to assessment. Assessment is visual and is based on the percentage of the leaf area covered by sporulation compared with that on control leaves.

Podosphaera leucotricha = test: Direct antisporulant activity against apple powdery mildew (Pl); assay type: in vivo; settings: foliar spray, 1 kg/ha; activity grade 1 or 2, not defined
Source text: (h) Activity Against Apple Powdery Mildew (Podosphaera leucotricha; Pl) The test is a direct anti-sporulant one using a foliar spray. The upper surfaces of leaves of whole seedlings are inoculated by spraying with an aqueous suspension containing 10^5 conidia/ml 2 days prior to treatment with the test compound. The inoculated plants are immediately dried and kept at glasshouse ambient temperatures and humidity prior to treatment. […] After drying the plants are returned to a compartment at ambient temperature and humidity for up to 9 days, followed by assessment. Assessment is based on the percentage of the leaf area covered by sporulation compared with that on leaves of control plants.

| Structure (SMILES) | Pvp: direct protectant activity against vine downy mildew (Plasmopara viticola [1]) | Bcp: direct protectant activity against vine grey mould (Botrytis cinerea) | Ph: activity against wheat eyespot [2] | Fs: activity against seedling wheat blight (Fusarium culmorum) | Eg: activity against barley powdery mildew [3] | Other: Pva, antisporulant activity against vine downy mildew (Plasmopara viticola [4]) | also measured |
| --- | --- | --- | --- | --- | --- | --- | --- |
| CC1(C)Cc2cccc([N+]([O-])=NC#N)c2O1 [Example 2] | 1 | 2 | 2 | 2 | – | – | – |
| Cc1ccc([N+]([O-])=NC#N)c2c1CC(C)(C)O2 [Example 3] | 2 | 1 | 2 | 1 | – | – | Ln: activity against wheat leafspot (Leptosphaeria nodorum): 1; As: activity against tomato early blight (Alternaria Solani): 1 |
| Cc1cc2c(F)ccc([N+]([O-])=NC#N)c2o1 [Example 22] | – | 1 | 2 | 2 | 2 | – | MIC (Staphylococcus aureus): > 100 µg/mL; MIC (Bacillus subtilis): 50 to 100 µg/mL (≈ 228 to 456 µM); MIC (Escherichia coli): > 100 µg/mL; MIC (Desulfovibrio sp.): 50 µg/mL (≈ 228 µM); MIC (Saccharomyces cerevisiae): 25 µg/mL (≈ 114 µM); MIC (Aspergillus niger): 10 µg/mL (≈ 45.6 µM); MIC (Cladosporium resinae): 10 to 25 µg/mL (≈ 45.6 to 114 µM); MIC (Chaetomium globosum): 5 µg/mL (≈ 22.8 µM) |
| COC(=O)N=Nc1cc(C)cc2c1OC(C)C2 (centres unmarked) [Example 33] | 1 | – | – | – | 1 | 1 | – |
| COC(=O)N=Nc1cc(Cl)c(C)c2c1OC(C)C2 (centres unmarked) [Example 35] | 1 | – | 1 | – | – | 1 | – |
| COCC1Cc2c(Cl)c(C)cc(N=NC(=O)OC)c2O1 (centres unmarked) [Example 36] | 1 | – | 2 | – | 2 | – | Other: Pl, activity against apple powdery mildew (Podosphaera leucotricha): 2 |
